The target of one series is T1, MmIMPα (Mus musculus, UniProt P52293).
T1 construct: GST; made in house
Kind of series: Thermostability assay (TSA), MmIMPα. Type of series: binding. On the procedure: The effect of inhibitory compounds on IMPα thermostability was tested, as previously, using the fluorescent dye SYPRO Orange (Thermo Fisher Scientific, Waltham, MA, USA) and the Qiagen Rotor-Gene Q6 plex instrument programmed in the melt curve mode. Increasing concentrations of compound in 0.5 µL DMSO were added to 24.5 µL recombinant protein (2 µM) in phosphate-buffered saline (PBS). Next, 1 µL of SYPRO Orange dye was added, the reaction mixture heated at 0.5 °C/min from 27 °C to 90 °C, and the fluorescence intensity caused by the SYPRO Orange binding to the proteins monitored (excitation/emission: 530/555 nm). Tm is the temperature at which 50% of the protein is unfolded.

The next series concerns the target T2, MmΔIBBIMPα (Mus musculus, UniProt P52293).
T2 construct: made in house
The series can be described thus: AlphaScreen binding assay, MmΔIBBIMPα:T-ag-NLS-GFP interaction. On the procedure: (§1) PfIMPα, TgIMPα, Mus musculus IMPα (MmIMPα), ΔIBBMmIMPα, and β1 (MmIMPβ) GST fusion proteins were expressed and purified essentially as previously. His-tagged TGS1-NLS-GFP, PfIMPα and TgIMPα proteins were purified using Ni^2+-affinity chromatography as described. His-tagged SV40 T-ag-NLS-GFP was purified as previously. Biotinylation of GST-tagged proteins was carried out using the Sulfo-NHS-Biotin reagent (Pierce, Rockford, IL, USA) as described previously. AlphaScreen binding assay was performed as described previously.
(§2) Plates were read for an Alphascreen signal on an Envision plate reader (PerkinElmer, Waltham, MA, USA), with signals from the negative control wells (no bait control) on each plate subtracted.
(In general: In Alpha technology, singlet oxygen from a donor bead excites a nearby acceptor bead.)

For series [1], the target named is T3, PfIMPα (Plasmodium falciparum, UniProt Q8IAW0). Type of series: binding.
Series [2] concerns the target T3, PfIMPα. The series can be described thus: biochemical. The format is binding. As to conditions: for % Inhibition of IMPα-NLS Interaction PfIMPα: compounds at 10 μM, PfIMPα (10 nM):TGS1-NLS-GFP (60 nM), relative to 1% DMSO control, quadruplicate. On the procedure:
as §1
Then, 10 nM biotinylated PfIMPα and 60 nM TGS1-NLS-GFP were used with library compounds, screened at 10 µM final concentration.
Briefly, 5 μL of each compound in DMSO was added to quadruplicate wells of a 384-well plate along with appropriate controls including DMSO alone and ivermectin, as previously, using a JANUS Modular Dispense Technology (MDT) robotic system (PerkinElmer, Waltham, MA, USA). This was followed by successive 7 and 5 μL additions, respectively, of PfIMPα (10 nM) and TGS1-NLS-GFP (60 nM) or PBS (“no bait” control), respectively, and 30 min incubation at room temperature. […] Then, 4 µL of the AlphaScreen donor beads (1/40 dilution of GSH. acceptor beads in PBS) was finally added to each well using a Multidrop, followed by a further incubation of 2 h at room temperature in the dark.
as §2

The target of a further series is TgIMPα (Toxoplasma gondii, UniProt A0A125YID0). Kind of series: biochemical. Type of series: binding. As to conditions: for % Inhibition of IMPα-NLS Interaction TgIMPα: compounds at 10 μM, TgIMPα (5 nM):T-ag-NLS-GFP (30 nM), relative to 1% DMSO control. On the procedure: as §1, §2
The next series concerns HFF cells. The series can be described thus: MTT assay for host cell cytotoxicity. The format is cell-based, human. On the procedure:
The MTT assay was used to measure the cytotoxicity of the small molecules against the HFF cells as described. Briefly, freshly confluent HFF cells in a 96-well culture plate were treated with increasing concentrations of compounds for 48 h, prior to the MTT assay.
Background: Tetrazolium dyes change colour on reduction, which living cells bring about.

Another series has as its target T4, MmIMPα/β heterodimer (Mus musculus, UniProt P52293).
T4 construct: GST; made in house
Kind of series: AlphaScreen binding assay, MmIMPα/β:T-ag-NLS-GFP interaction. As to conditions: compounds at 10 μM, MmIMPα/β (5 nM):T-ag-NLS-GFP (30 nM), relative to 1% DMSO control. Here is the method:
as §1, §2

The subject of a further series is T. gondii tachyzoites. The settings on record: cited from earlier work.
The test system of the next series is P. falciparum. As to conditions: cited from earlier work.
Where [3] appears, read: compounds at 10 μM, ΔIBBMmIMPα (5 nM):T-ag-NLS-GFP (30 nM), relative to 1% DMSO control.
Where [4] appears, read: pooled, mean ± SEM (n = 3), read-out: IC50 MmΔIBBIMPα:T-ag-NLS.
Where [5] appears, read: single experiment (Figure 3), IMPα 5 nM, NLS 30 nM, read-out: IC50 MmΔIBBIMPα:T-ag-NLS-GFP.
Setting [6] is: pooled, mean ± SEM (n = 3), read-out: IC50 PfIMPα:TGS1-NLS-GFP.
The mark [7] stands for this setting: pooled, mean ± SEM (n = 3), read-out: IC50 TgIMPα:T-ag-NLS-GFP.

SMILES strings stand for the structures. Values joined by “and” are separate entries in the source; they are usually repeats but may differ in a detail not shown here. Identical values can stand only once. Like-named read-outs stand apart in the source and are kept apart here.

These results are taken from PMC8997399, “High-Throughput Screening to Identify Inhibitors of Plasmodium falciparum Importin α” (Cells, 2022).

T3 sequence (Q8IAW0 entry or part of it): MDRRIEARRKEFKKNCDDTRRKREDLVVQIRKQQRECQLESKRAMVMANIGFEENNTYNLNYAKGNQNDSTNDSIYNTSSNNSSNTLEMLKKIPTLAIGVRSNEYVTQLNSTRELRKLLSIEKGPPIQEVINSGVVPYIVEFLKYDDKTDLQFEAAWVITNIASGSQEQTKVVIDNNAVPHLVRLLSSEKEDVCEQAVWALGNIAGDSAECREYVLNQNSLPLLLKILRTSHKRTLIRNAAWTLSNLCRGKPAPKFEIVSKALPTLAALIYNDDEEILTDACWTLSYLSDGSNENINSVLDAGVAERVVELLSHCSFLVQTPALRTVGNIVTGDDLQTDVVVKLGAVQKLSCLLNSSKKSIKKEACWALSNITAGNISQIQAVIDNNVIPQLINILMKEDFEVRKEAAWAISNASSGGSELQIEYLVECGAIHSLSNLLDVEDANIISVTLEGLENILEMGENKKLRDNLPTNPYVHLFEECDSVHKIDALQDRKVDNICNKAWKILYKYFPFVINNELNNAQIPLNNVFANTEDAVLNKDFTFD
Chain of TgIMPα (A0A125YID0 entry or part of it): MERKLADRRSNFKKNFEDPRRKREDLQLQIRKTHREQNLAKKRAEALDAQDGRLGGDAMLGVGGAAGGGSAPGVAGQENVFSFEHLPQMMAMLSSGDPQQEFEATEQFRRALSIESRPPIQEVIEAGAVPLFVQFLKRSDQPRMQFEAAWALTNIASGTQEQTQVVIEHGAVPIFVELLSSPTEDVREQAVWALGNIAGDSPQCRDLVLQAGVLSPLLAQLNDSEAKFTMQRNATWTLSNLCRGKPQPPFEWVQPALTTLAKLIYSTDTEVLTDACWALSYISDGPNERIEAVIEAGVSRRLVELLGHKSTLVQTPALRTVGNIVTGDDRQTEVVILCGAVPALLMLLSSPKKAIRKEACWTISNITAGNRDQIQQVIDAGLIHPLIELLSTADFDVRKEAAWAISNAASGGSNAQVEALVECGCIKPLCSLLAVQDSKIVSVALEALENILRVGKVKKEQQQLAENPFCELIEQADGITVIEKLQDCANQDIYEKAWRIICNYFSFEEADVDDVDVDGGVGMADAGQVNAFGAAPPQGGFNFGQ

As usually defined, the IC50 is the concentration at which inhibition is half-maximal. By CC50 is commonly meant the concentration at which the toxic effect on the cells reaches its halfway point. As to `CC(C)(C)c1ccc(S(=O)(=O)/C=C/C#N)cc1` [Bay 11-7085], at MmIMPα (10–20 µM), the “MmIMPα stable only up to” value was 30–36 °C. In addition, the “reduction of thermostability of MmIMPα” value at MmIMPα (10–20 µM) is 9–15 °C. Moreover, the “% Inhibition of IMPα-NLS Interaction MmΔIBBIMPα” value on MmΔIBBIMPα (setting [3]) is listed as 9%. Also, the half-maximal inhibitory concentration (IC50) on MmΔIBBIMPα (setting [4]) is 23000 nM and 23400 nM; at MmΔIBBIMPα (setting [5]), 31000 nM; on PfIMPα [1] (setting [6]), 2000 nM and 1900 nM; on TgIMPα (setting [7]) it was 30400 ± 600 nM. The “fold higher IC50 for ΔIBBMmIMPα-NLS compared to PfIMPα-TGS-NLS interaction” value on MmΔIBBIMPα (selectivity for PfIMPα) is given as about 12 fold. The “fold lower IC50 for PfIMPα compared to both TgIMPα and MmIMPα” value on PfIMPα [1] (range over both comparisons) is given as 12-16 fold. Further, on PfIMPα [2], the “% Inhibition of IMPα-NLS Interaction PfIMPα” value is 75%. Also, the “% Inhibition of IMPα-NLS Interaction TgIMPα” value on TgIMPα came out at 0%. In addition, the “fold higher IC50 for TgIMPα-NLS compared to PfIMPα-TGS-NLS interaction” value at TgIMPα (selectivity for PfIMPα) was about 16 fold. The compound further returned a CC50 with HFF cells of 8200 ± 700 nM.

For `O=C(/C=C/c1ccc(O)c(O)c1)OCCc1ccccc1` [CAPE, Caffeic acid phenethyl ester], at MmIMPα (up to 100 µM), the “change in stability of MmIMPα” value is recorded as “did not elicit any marked change in stability”. Further, the inhibition at 10 µM on MmΔIBBIMPα (compounds at 10 μM, ΔIBBMmIMPα (5 nM):T-ag-NLS-GFP (30 nM), relative to 1% DMSO control, read-out: % Inhibition of IMPα-NLS Interaction MmΔIBBIMPα) came out at 92%; at PfIMPα [2] (read-out: % Inhibition of IMPα-NLS Interaction PfIMPα) it was 84%; on MmIMPα/β heterodimer (read-out: % Inhibition of IMPα-NLS Interaction MmIMPα/β), 14%; on TgIMPα (read-out: % Inhibition of IMPα-NLS Interaction TgIMPα), 62%. In addition, the 50% inhibitory concentration (IC50) came to 700 ± 100 nM at MmΔIBBIMPα (setting [4]), 1800 ± 300 nM at PfIMPα [2] and 2900 ± 900 nM against TgIMPα.

`CC(=O)OC[C@H]1O[C@@H]([S-])[C@H](OC(C)=O)[C@@H](OC(C)=O)[C@@H]1OC(C)=O.CCP(CC)CC.[Au+]` [auranofin]: on MmIMPα (concentrations as low as 5 μM), the “MmIMPα stable only up to” value is 32–35 °C. In addition, the “reduction of thermostability of MmIMPα” value on MmIMPα (concentrations as low as 5 μM) is 12–15 °C. For the same compound, the “% Inhibition of IMPα-NLS Interaction MmΔIBBIMPα” value on MmΔIBBIMPα (setting [3]) worked out at 91%. Besides, the IC50 on MmΔIBBIMPα (setting [4]) was 60 ± 10 nM; on MmΔIBBIMPα (setting [5]) it was 50 nM; on PfIMPα [1] (setting [6]), 70 ± 10 nM; on PfIMPα [1] (range over PfIMPα, TgIMPα and MmΔIBBIMPα interactions, read-out: IC50 values of all three IMPα:NLS interactions) it was 60 to 80 nM; on PfIMPα [1] (single experiment (Figure 3), IMPα 5 nM, NLS 30 nM, read-out: IC50 PfIMPα:TGS1-NLS-GFP), 80 nM; on TgIMPα (setting [7]), 80 ± 10 nM. At TgIMPα (single experiment (Figure 3), IMPα 5 nM, NLS 30 nM, read-out: IC50 TgIMPα:T-ag-NLS-GFP), the IC50 was found to be 50 nM. Moreover, the “% Inhibition of IMPα-NLS Interaction PfIMPα” value at PfIMPα [2] came out at 94%. In addition, the “activity against cultured T. gondii” value with T. gondii tachyzoites is on record as “possess activity”. The “% Inhibition of IMPα-NLS Interaction MmIMPα/β” value on MmIMPα/β heterodimer amounted to 100%. Moreover, the “% Inhibition of IMPα-NLS Interaction TgIMPα” value on TgIMPα amounted to 90%. For the same compound, the “activity against P. falciparum” value with P. falciparum is on record as “possess activity”. Further, in the series with HFF cells (MTT assay, 48 h, mean ± SD (n = 2), read-out: CC50 HFF cells), the cytotoxic concentration (CC50) was found to be 5100 nM. The “cytotoxicity to HFF cells” value in the series with HFF cells (at concentrations < c. 5 µM) was “essentially absent”.
